According to publication PMC10044120, “Potent and selective covalent inhibition of the papain-like protease from SARS-CoV-2” (Nature Communications, 2023):
Values joined by “and” are separate entries in the source; they are usually repeats but may differ in a detail not shown here. Equal entries are not always repeated. Where two headings read alike, the source gives them in different places.

What was measured:
SARS-CoV-2 USA-WA1/2020 [1] = assay: CPE assay, neutral red, Vero E6 cells with 2 μM CP-100356, USA-WA1/2020; assay type: cell-based; settings: for Percent Cytopathic Effect (Neutral Red): USA-WA1/2020
[2] = test system: SARS-CoV-2 Delta (B.1.617.2); assay: CPE assay, neutral red, Vero E6 cells with 2 μM CP-100356, Delta; assay type: cell-based; settings: Delta (B1.617.2), Vero E6, 2 μM CP-100356
SARS-CoV-2 USA-WA1/2020 [3] = assay: microbe, parasite or virus in culture; assay type: cell-based; settings: for Virus Titer: USA-WA1/2020
[4] = test system: SARS-CoV-2 Delta (B.1.617.2); assay: microbe, parasite or virus in culture; assay type: cell-based; settings: Delta (B1.617.2), Caco-2
[5] = test system: SARS-CoV-2 Omicron (B.1.1.529); assay: microbe, parasite or virus in culture; assay type: cell-based; settings: Omicron (B1.1.529), Caco-2
Vero E6 cells [6] = settings: for Percent Cytotoxicity (Neutral Red): Vero E6
Caco-2 cells = settings: for Percent Cytotoxicity (Neutral Red): Caco-2
[7] = test system: SARS-CoV-2 isolate USA-WA1/2020; settings: African green monkey
Vero E6 cells [8] = settings: African green monkey
HAUSP = settings: cited from earlier work
deISGylase USP18 = settings: cited from earlier work
UCH-L1 = settings: cited from earlier work
UCH-L3 = settings: cited from earlier work
in vitro = settings: African green monkey, cytotoxicity, %cell viability
[9] = test system: SARS-CoV-2 isolate USA-WA1/2020; assay: microbe, parasite or virus in culture; settings: Severe acute respiratory syndrome coronavirus 2, Vero C1008, read-out: cytopathic effect, % cell viability

SMILES: O=c1nc(NO)ccn1[C@@H]1O[C@H](CO)[C@@H](O)[C@H]1O [EIDD-1931]
- EC50 (SARS-CoV-2 USA-WA1/2020 [1]; USA-WA1/2020, Vero E6, 2 μM CP-100356): 0.3 µM
- Percent Cytopathic Effect (Neutral Red) (SARS-CoV-2 USA-WA1/2020 [1]; 0.1 µg/mL): 95.9%
- Percent Cytopathic Effect (Neutral Red) (SARS-CoV-2 USA-WA1/2020 [1]; 1 µg/mL): 0.0%
- Percent Cytopathic Effect (Neutral Red) (SARS-CoV-2 USA-WA1/2020 [1]; 10 µg/mL): 0.559%
- Percent Cytopathic Effect (Neutral Red) (SARS-CoV-2 USA-WA1/2020 [1]; 100 µg/mL): 0.0%
- EC50 [2]: 0.31 µM
- EC90 (SARS-CoV-2 USA-WA1/2020 [3]; USA-WA1/2020, Caco-2): 0.12 µM
- Virus Titer (SARS-CoV-2 USA-WA1/2020 [3]; 0.1 µg/mL): 3.7 CCID50/mL (Log10)
- Virus Titer (SARS-CoV-2 USA-WA1/2020 [3]; 1 µg/mL): <0.7 CCID50/mL (Log10)
- Virus Titer (SARS-CoV-2 USA-WA1/2020 [3]; 10 µg/mL): <0.7 CCID50/mL (Log10)
- Virus Titer (SARS-CoV-2 USA-WA1/2020 [3]; 32 µg/mL): <0.7 CCID50/mL (Log10)
- Virus Titer (SARS-CoV-2 USA-WA1/2020 [3]; 100 µg/mL): <0.7 CCID50/mL (Log10)
- EC90 [4]: 4.9 µM
- EC90 [5]: 2.9 µM
- CC50 (Vero E6 cells [6]; Vero E6, 2 μM CP-100356, Delta rows): > 100 µM
- CC50 (Vero E6 cells [6]; Vero E6, 2 μM CP-100356, Omicron rows): > 100 µM
- CC50 (Vero E6 cells [6]; Vero E6, 2 μM CP-100356, USA-WA1/2020 rows): > 100 µM
- Percent Cytotoxicity (Neutral Red) (Vero E6 cells [6]; SARS2-733 (Delta set), 0.1 µg/mL): 2.1%
- Percent Cytotoxicity (Neutral Red) (Vero E6 cells [6]; SARS2-733 (Delta set), 1 µg/mL): 5.1%
- Percent Cytotoxicity (Neutral Red) (Vero E6 cells [6]; SARS2-733 (Delta set), 10 µg/mL): 36.7%
- Percent Cytotoxicity (Neutral Red) (Vero E6 cells [6]; SARS2-733 (Delta set), 100 µg/mL): 48.2%
- Percent Cytotoxicity (Neutral Red) (Vero E6 cells [6]; SARS2-733 (Omicron set), 0.1 µg/mL): 0.0%
- Percent Cytotoxicity (Neutral Red) (Vero E6 cells [6]; SARS2-733 (Omicron set), 1 µg/mL): 0.0%
- Percent Cytotoxicity (Neutral Red) (Vero E6 cells [6]; SARS2-733 (Omicron set), 10 µg/mL): 28.4%
- Percent Cytotoxicity (Neutral Red) (Vero E6 cells [6]; SARS2-733 (Omicron set), 100 µg/mL): 45.6%
- Percent Cytotoxicity (Neutral Red) (Vero E6 cells [6]; SARS2-735, 0.1 µg/mL): 0.0%
- Percent Cytotoxicity (Neutral Red) (Vero E6 cells [6]; SARS2-735, 1 µg/mL): 0.0%
- Percent Cytotoxicity (Neutral Red) (Vero E6 cells [6]; SARS2-735, 10 µg/mL): 23.0%
- Percent Cytotoxicity (Neutral Red) (Vero E6 cells [6]; SARS2-735, 100 µg/mL): 38.9%
- CC50 (Caco-2 cells; Caco-2, Delta rows): > 100 µM
- CC50 (Caco-2 cells; Caco-2, Omicron rows): > 100 µM
- CC50 (Caco-2 cells; Caco-2, USA-WA1/2020 rows): 94 µM
- Percent Cytotoxicity (Neutral Red) (Caco-2 cells; SARS2-740 (Delta set), 0.1 µg/mL): 7.9%
- Percent Cytotoxicity (Neutral Red) (Caco-2 cells; SARS2-740 (Delta set), 1 µg/mL): 14.7%
- Percent Cytotoxicity (Neutral Red) (Caco-2 cells; SARS2-740 (Delta set), 10 µg/mL): 5.3%
- Percent Cytotoxicity (Neutral Red) (Caco-2 cells; SARS2-740 (Delta set), 32 µg/mL): 15.2%
- Percent Cytotoxicity (Neutral Red) (Caco-2 cells; SARS2-740 (Delta set), 100 µg/mL): 30.0%
- Percent Cytotoxicity (Neutral Red) (Caco-2 cells; SARS2-740 (Omicron set), 0.1 µg/mL): 0.118%
- Percent Cytotoxicity (Neutral Red) (Caco-2 cells; SARS2-740 (Omicron set), 1 µg/mL): 4.7%
- Percent Cytotoxicity (Neutral Red) (Caco-2 cells; SARS2-740 (Omicron set), 10 µg/mL): 1.2%
- Percent Cytotoxicity (Neutral Red) (Caco-2 cells; SARS2-740 (Omicron set), 32 µg/mL): 6.1%
- Percent Cytotoxicity (Neutral Red) (Caco-2 cells; SARS2-740 (Omicron set), 100 µg/mL): 24.6%
- Percent Cytotoxicity (Neutral Red) (Caco-2 cells; SARS2-740 (USA-WA1/2020 set), 0.1 µg/mL): 15.6%
- Percent Cytotoxicity (Neutral Red) (Caco-2 cells; SARS2-740 (USA-WA1/2020 set), 1 µg/mL): 13.4%
- Percent Cytotoxicity (Neutral Red) (Caco-2 cells; SARS2-740 (USA-WA1/2020 set), 10 µg/mL): 13.8%
- Percent Cytotoxicity (Neutral Red) (Caco-2 cells; SARS2-740 (USA-WA1/2020 set), 32 µg/mL): 17.6%
- Percent Cytotoxicity (Neutral Red) (Caco-2 cells; SARS2-740 (USA-WA1/2020 set), 100 µg/mL): 51.9%

SMILES: Cc1ccc(N)cc1C(=O)N[C@H](C)c1cccc2ccccc12 [GRL0617, reference compound]
- inhibition ([7]; 2.08 µM): 8.22%
- inhibition ([7]; 8.33 µM): 3.62%
- cytotoxicity, %cell viability (Vero E6 cells [8]; 2.08 µM): 100.64%
- cytotoxicity, %cell viability (Vero E6 cells [8]; 8.33 µM): 100.01%
- cytotoxicity, %cell viability (Vero E6 cells [8]; 16.65 µM): 87.87%
- IC50 (HAUSP): > 100 µM
- IC50 (deISGylase USP18): > 100 µM
- IC50 (UCH-L1): > 100 µM
- IC50 (UCH-L3): > 100 µM
- viability at 2.08 µM (in vitro): 99.1%
- viability at 8.33 µM (in vitro): 93.3%
- viability at 16.65 µM (in vitro): 80.3%
- viability at […] (in vitro): 104% and 102% and 77.8% and 100%
- inhibition at 2.08 µM [9]: 15.2%
- inhibition at 8.33 µM [9]: 7.11%
- inhibition at […] [9]: 11.5% and 6.73% and 8.44%
